Where two headings read alike, the source gives them in different places.
System: breast cancer cell lines
Assay: cells
Conditions: for IC50: read-out: Growth Inhibition IC50; for GI50: read-out: Growth inhibition GI50
[1] = Homo sapiens, MDA-MB-175-VII, 96 h

IC50 (96 h): 419 nM
GI50 (96 h): 116 nM
IC50 (EFM-192A, 96 h): 1280 nM
GI50 (EFM-192A, 96 h): 294 nM
IC50 (HCC202, 96 h): 190 nM
GI50 (HCC202, 96 h): 28 nM
IC50 (HCC1500, 96 h): 2280 nM
GI50 (HCC1500, 96 h): 103 nM
IC50 (Homo sapiens, AU565, 96 h): 21 nM
GI50 (Homo sapiens, AU565, 96 h): 16 nM
IC50 (Homo sapiens, BT-20, 96 h): 44 nM
GI50 (Homo sapiens, BT-20, 96 h): 28 nM
IC50 (Homo sapiens, BT-474, 96 h): 595 nM
GI50 (Homo sapiens, BT-474, 96 h): 10000 nM
IC50 (Homo sapiens, BT-483, 96 h): 3400 nM
IC50 (Homo sapiens, BT-549, 96 h): 66 nM
GI50 (Homo sapiens, BT-549, 96 h): 34 nM
IC50 (Homo sapiens, CAL-51, 96 h): 10 nM
GI50 (Homo sapiens, CAL-51, 96 h): 9 nM
IC50 (Homo sapiens, CAL-85-1, 96 h): 93 nM
GI50 (Homo sapiens, CAL-85-1, 96 h): 29 nM
IC50 (Homo sapiens, CAL-120, 96 h): 272 nM
GI50 (Homo sapiens, CAL-120, 96 h): 10000 nM
IC50 (Homo sapiens, CAL-148, 96 h): 168 nM
GI50 (Homo sapiens, CAL-148, 96 h): 47 nM
IC50 (Homo sapiens, CAMA-1, 96 h): 763 nM
GI50 (Homo sapiens, CAMA-1, 96 h): 590 nM
IC50 (Homo sapiens, DU-4475, 96 h): 246 nM
GI50 (Homo sapiens, DU-4475, 96 h): 38 nM
IC50 (Homo sapiens, EFM-19, 96 h): 181 nM
GI50 (Homo sapiens, EFM-19, 96 h): 35 nM
IC50 (Homo sapiens, EVSA-T, 96 h): 206 nM
GI50 (Homo sapiens, EVSA-T, 96 h): 6000 nM
IC50 (Homo sapiens, HCC38, 96 h): 12 nM
GI50 (Homo sapiens, HCC38, 96 h): 9 nM
IC50 (Homo sapiens, HCC1143, 96 h): 481 nM
GI50 (Homo sapiens, HCC1143, 96 h): 215 nM
IC50 (Homo sapiens, HCC1187, 96 h): 31 nM
GI50 (Homo sapiens, HCC1187, 96 h): 27 nM
IC50 (Homo sapiens, HCC1419, 96 h): 2510 nM
GI50 (Homo sapiens, HCC1419, 96 h): 10000 nM
IC50 (Homo sapiens, HCC1428, 96 h): 472 nM
GI50 (Homo sapiens, HCC1428, 96 h): 326 nM
IC50 (Homo sapiens, HCC1569, 96 h): 408 nM
GI50 (Homo sapiens, HCC1569, 96 h): 88 nM
IC50 (Homo sapiens, HCC1806, 96 h): 11 nM
GI50 (Homo sapiens, HCC1806, 96 h): 8 nM
IC50 (Homo sapiens, HCC1937, 96 h): 311 nM
GI50 (Homo sapiens, HCC1937, 96 h): 6380 nM
IC50 (Homo sapiens, HCC1954, 96 h): 68 nM
GI50 (Homo sapiens, HCC1954, 96 h): 27 nM
IC50 (Homo sapiens, HDQ-P1, 96 h): 83 nM
GI50 (Homo sapiens, HDQ-P1, 96 h): 106 nM
IC50 (Homo sapiens, Hs-578T, 96 h): 41 nM
GI50 (Homo sapiens, Hs-578T, 96 h): 47 nM
IC50 (Homo sapiens, JIMT-1, 96 h): 165 nM
GI50 (Homo sapiens, JIMT-1, 96 h): 61 nM
IC50 (Homo sapiens, MCF7, 96 h): 12 nM
GI50 (Homo sapiens, MCF7, 96 h): 11 nM
IC50 (Homo sapiens, MDA-MB-134-VI, 96 h): 3170 nM
IC50 (Homo sapiens, MDA-MB-157, 96 h): 631 nM
GI50 (Homo sapiens, MDA-MB-157, 96 h): 114 nM
IC50 [1]: 2840 nM
GI50 [1]: 5280 nM
IC50 (Homo sapiens, MDA-MB-231, 96 h): 31 nM
GI50 (Homo sapiens, MDA-MB-231, 96 h): 19 nM
IC50 (Homo sapiens, MDA-MB-361, 96 h): 1470 nM
GI50 (Homo sapiens, MDA-MB-361, 96 h): 91 nM
IC50 (Homo sapiens, MDA-MB-415, 96 h): 5510 nM
GI50 (Homo sapiens, MDA-MB-415, 96 h): 10000 nM
IC50 (Homo sapiens, MDA-MB-436, 96 h): 510 nM
GI50 (Homo sapiens, MDA-MB-436, 96 h): 999 nM
IC50 (Homo sapiens, MDA-MB-453, 96 h): 668 nM
GI50 (Homo sapiens, MDA-MB-453, 96 h): 10000 nM
IC50 (Homo sapiens, MDA-MB-468, 96 h): 24 nM
GI50 (Homo sapiens, MDA-MB-468, 96 h): 23 nM
IC50 (Homo sapiens, MFM-223, 96 h): 172 nM
GI50 (Homo sapiens, MFM-223, 96 h): 43 nM
IC50 (Homo sapiens, SK-BR-3, 96 h): 272 nM
GI50 (Homo sapiens, SK-BR-3, 96 h): 81 nM
IC50 (Homo sapiens, T47D, 96 h): 336 nM
GI50 (Homo sapiens, T47D, 96 h): 81 nM
IC50 (Homo sapiens, UACC-812, 96 h): 296 nM
GI50 (Homo sapiens, UACC-812, 96 h): 319 nM
IC50 (Homo sapiens, UACC-893, 96 h): 787 nM
IC50 (Homo sapiens, ZR-75-1, 96 h): 3310 nM
GI50 (Homo sapiens, ZR-75-1, 96 h): 32 nM
IC50 (Homo sapiens, ZR-75-30, 96 h): 715 nM
IC50 (KPL-1, 96 h): 64 nM
GI50 (KPL-1, 96 h): 126 nM
IC50 (MT-3, 96 h): 8500 nM
GI50 (MT-3, 96 h): 5760 nM
Structure (SMILES): CNC(=O)c1ccc(Nc2nc(OC(C)C)c3c(-c4ccc5nc(C)oc5c4)c[nH]c3n2)c(OC)c1 [Compound 125, 4-((4-isopropoxy-5-(2-methylbenzo[d]oxazol-6-yl)-7H-pyrrolo[2,3-d]pyrimidin-2-yl)amino)-3-methoxy-N-methylbenzamide]
IC50 (Homo sapiens, HCC70, 96 h): 268 nM
GI50 (Homo sapiens, HCC70, 96 h): 47 nM

— patent US9623028B2, “Methods of treating a cancer using substituted pyrrolopyrimidine compounds, compositions thereof” (Signal Pharmaceuticals, LLC, priority 2014, dated 2017)
